Measured values taken from US9708331B2, “Metabotrophic glutamate receptor 5 modulators and methods of use thereof” (SUNOVION PHARMACEUTICALS INC., priority 2011, dated 2017).

Experiments:
mGluR5 [1] = biological target: T1, mGluR5 (Homo sapiens, UniProt P41594); assay: mGluR5 PAM EC50 (positive allosteric modulator potency); assay type: cell-based
mGluR5 [2] = biological target: T1, mGluR5; assay: mGluR5 fold shift at a fixed compound concentration; assay type: cell-based

T1 sequence (P41594 21-1212): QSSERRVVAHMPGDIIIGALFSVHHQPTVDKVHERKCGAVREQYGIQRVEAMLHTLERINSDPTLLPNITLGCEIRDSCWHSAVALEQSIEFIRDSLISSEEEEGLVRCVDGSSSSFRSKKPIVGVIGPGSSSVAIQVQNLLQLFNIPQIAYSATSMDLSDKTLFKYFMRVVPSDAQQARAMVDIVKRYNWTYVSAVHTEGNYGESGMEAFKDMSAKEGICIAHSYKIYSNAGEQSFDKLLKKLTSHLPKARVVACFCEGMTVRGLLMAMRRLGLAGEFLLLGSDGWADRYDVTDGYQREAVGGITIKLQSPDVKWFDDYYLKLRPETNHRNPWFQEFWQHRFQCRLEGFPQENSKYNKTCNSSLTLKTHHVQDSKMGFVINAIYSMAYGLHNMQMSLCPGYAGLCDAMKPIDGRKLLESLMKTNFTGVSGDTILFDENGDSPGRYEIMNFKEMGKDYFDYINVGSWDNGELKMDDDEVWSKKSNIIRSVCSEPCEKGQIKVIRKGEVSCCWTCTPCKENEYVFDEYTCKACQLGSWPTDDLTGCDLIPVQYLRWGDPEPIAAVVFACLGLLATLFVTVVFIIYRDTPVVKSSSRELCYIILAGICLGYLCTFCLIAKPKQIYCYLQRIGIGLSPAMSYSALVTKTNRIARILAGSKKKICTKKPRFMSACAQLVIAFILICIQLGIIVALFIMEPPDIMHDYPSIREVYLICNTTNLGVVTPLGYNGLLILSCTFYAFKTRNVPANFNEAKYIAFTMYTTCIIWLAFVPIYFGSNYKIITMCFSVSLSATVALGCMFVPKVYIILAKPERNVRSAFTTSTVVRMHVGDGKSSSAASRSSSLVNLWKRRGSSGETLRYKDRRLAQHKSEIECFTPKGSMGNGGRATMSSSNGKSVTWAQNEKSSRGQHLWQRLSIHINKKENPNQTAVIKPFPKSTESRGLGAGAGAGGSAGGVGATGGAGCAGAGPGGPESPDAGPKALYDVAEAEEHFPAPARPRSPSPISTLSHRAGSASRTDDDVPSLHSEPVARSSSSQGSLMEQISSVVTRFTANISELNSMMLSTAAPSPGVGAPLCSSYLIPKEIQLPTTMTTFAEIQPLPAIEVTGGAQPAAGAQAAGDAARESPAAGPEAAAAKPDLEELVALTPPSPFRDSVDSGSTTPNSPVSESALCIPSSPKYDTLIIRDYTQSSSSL

EC50 (mGluR5 [1]) [nM] | Fold shift at 1 μM (mGluR5 [2]) | Fold shift at 10 μM (mGluR5 [2]; at 10 μM) | Structure (SMILES)
< 10 | ++ (++ is between 2.0 and 2.9) | – | CC1(C)CCc2nc3cc(C#Cc4ccccc4)ccc3c(=O)n2C1 [Example 2.37, 8,8-dimethyl-3-(phenylethynyl)-8,9-dihydro-6H-pyrido[2,1-b]quinazolin-11(7H)-one]
10 to 30 | +++ (+++>3) | – | Cc1cccc(C#Cc2ccc3c(=O)n4c(nc3c2)CCC(C)(C)C4)n1 [Example 2.41, 8,8-dimethyl-3-((6-methylpyridin-2-yl)ethynyl)-8,9-dihydro-6H-pyrido[2,1-b]quinazolin-11(7H)-one]
< 10 | +++ (+++>3) | – | CC1(C)CCc2nc3cc(C#Cc4ccc(Cl)cn4)ccc3c(=O)n2C1 [Example 2.42, 3-((5-chloropyridin-2-yl)ethynyl)-8,8-dimethyl-8,9-dihydro-6H-pyrido[2,1-b]quinazolin-11(7H)-one]
< 10 | ++ (++ is between 2.0 and 2.9) | – | CC1(C)CCc2nc3cc(C#Cc4ccc(F)cn4)ccc3c(=O)n2C1 [Example 2.43, 3-((5-fluoropyridin-2-yl)ethynyl)-8,8-dimethyl-8,9-dihydro-6H-pyrido[2,1-b]quinazolin-11(7H)-one]
< 10 | +++ (+++>3) | – | Cc1cccc(C#Cc2ccc3c(=O)n4c(nc3c2)CCC(C)(C)C4)c1 [Example 2.44, 8,8-dimethyl-3-(m-tolylethynyl)-8,9-dihydro-6H-pyrido[2,1-b]quinazolin-11(7H)-one]
10 to 30 | ++ (++ is between 2.0 and 2.9) | – | CC1(C)CCc2nc3cc(C#Cc4cccc(C#N)c4)ccc3c(=O)n2C1 [Example 2.45, 3-((8,8-dimethyl-11-oxo-7,8,9,11-tetrahydro-6H-pyrido[2,1-b]quinazolin-3-yl)ethynyl)benzonitrile]
< 10 | ++ (++ is between 2.0 and 2.9) | – | Cc1ncc(C#Cc2ccc3c(=O)n4c(nc3c2)CCC(C)(C)C4)s1 [Example 2.49, 8,8-dimethyl-3-((2-methylthiazol-5-yl)ethynyl)-8,9-dihydro-6H-pyrido[2,1-b]quinazolin-11(7H)-one]
10 to 30 | +++ (+++>3) | – | O=c1c2ccc(C#Cc3ccccn3)cc2nc2n1CC1(CC2)COC1 [Example 2.58, 3′-(pyridin-2-ylethynyl)-6′,7′-dihydrospiro[oxetane-3,8′-pyrido[2,1-b]quinazolin]-11′(9′H)-one]
< 10 | +++ (+++>3) | – | O=c1c2ccc(C#Cc3ccccn3)cc2nc2n1CC1(CC2)CC1(F)F (centres unmarked) [Example 2.68, 2,2-difluoro-3′-(pyridin-2-ylethynyl)-6′,7′-dihydrospiro[cyclopropane-1,8′-pyrido[2,1-b]quinazolin]-11′(9′H)-one]
< 10 | +++ (+++>3) | – | CC12Cn3c(nc4cc(C#Cc5ccccn5)ccc4c3=O)CC1C2(F)F (centres unmarked) [Example 2.69, 1,1-difluoro-10a-methyl-5-(pyridin-2-ylethynyl)-1a,2,10,10a-tetrahydrocyclopropa[4,5]pyrido [2,1-b]quinazolin-8(1H)-one]
< 10 | +++ (+++>3) | – | CC1(CF)CCc2nc3cc(C#Cc4ccccn4)ccc3c(=O)n2C1 (centres unmarked) [Example 2.96, 8-(fluoromethyl)-8-methyl-3-(pyridin-2-ylethynyl)-8,9-dihydro-6H-pyrido[2,1-b]quinazolin-11(7H)-one]
10 to 30 | +++ (+++>3) | – | COCC1(C)CCc2nc3cc(C#Cc4ccccn4)ccc3c(=O)n2C1 (centres unmarked) [Example 2.97, 8-(methoxymethyl)-8-methyl-3-(pyridin-2-ylethynyl)-8,9-dihydro-6H-pyrido[2,1-b]quinazolin-11(7H)-one]
< 10 | +++ (+++>3) | – | CC12Cc3nc4cc(C#Cc5ccccn5)ccc4c(=O)n3CC1C2 (centres unmarked) [Example 2.98, 1a-methyl-5-(pyridin-2-ylethynyl)-1a,2,10,10a-tetrahydrocyclopropa[4,5]pyrido [2,1-b]quinazolin-8(1H)-one]
30 to 100 | ++ (++ is between 2.0 and 2.9) | – | COc1cccc(C#Cc2ccc3c(=O)n4c(nc3c2)CCC(C)(C)C4)n1 [Example 2.101, 3-((6-methoxypyridin-2-yl)ethynyl)-8,8-dimethyl-8,9-dihydro-6H-pyrido[2,1-b]quinazolin-11(7H)-one]
30 to 100 | + (+ is between 1.5 and 1.9) | – | COc1ccnc(C#Cc2ccc3c(=O)n4c(nc3c2)CCC(C)(C)C4)c1 [Example 2.102, 3-((4-methoxypyridin-2-yl)ethynyl)-8,8-dimethyl-8,9-dihydro-6H-pyrido[2,1-b]quinazolin-11(7H)-one]
30 to 100 | ++ (++ is between 2.0 and 2.9) | – | CC1(C)CCc2nc3cc(C#Cc4cccnn4)ccc3c(=O)n2C1 [Example 2.105, 8,8-dimethyl-3-(pyridazin-3-ylethynyl)-8,9-dihydro-6H-pyrido[2,1-b]quinazolin-11(7H)-one]
10 to 30 | – | +++ (+++>3) | O=c1c2ccc(C#Cc3ccccn3)cc2nc2n1CCC(F)(F)CC2 [Example 3.15, 8,8-difluoro-3-(pyridin-2-ylethynyl)-7,8,9,10-tetrahydroazepino[2,1-b]quinazolin-12(6H)-one]
10 to 30 | +++ (+++>3) | – | O=c1c2ccc(C#Cc3ccccn3)cc2nc2n1CC1(CCC2)CC1(F)F (centres unmarked) [Example 3.40, 2′,2′-difluoro-3-(pyridin-2-ylethynyl)-7,8-dihydro-6H-spiro[azepino[2,1-b]quinazoline-9,1′-cyclopropan]-12(10H)-one]
100 to 300 | + (+ is between 1.5 and 1.9) | – | CC1(C)CCn2c(nc3cc(C(=O)Nc4ccccn4)ccc3c2=O)C1 [Example 4.11, 7,7-dimethyl-11-oxo-N-(pyridin-2-yl)-7,8,9,11-tetrahydro-6H-pyrido[2,1-b]quinazoline-3-carboxamide]
